Where “and” joins values, the source holds several entries; their conditions need not be identical. Equal values may be shown once. Toxic doses and inconclusive results are not listed.
Tested on: BDF1 mice, P388 leukemia ip, median survival T/C
Assay: NCI In Vivo Anticancer Drug Screen. Data for tumor model P388 Leukemia (intraperitoneal) in B6D2F1 (BDF1) mice
Conditions: endpoint: median survival time, higher = longer survival
Summary of the method: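 Vehicle-dosed animals serve as the reference; survival of compound-dosed, tumour-implanted mice is divided by it.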

[1] = dose: 25.0 mg/kg/injection, schedule: Q04DX003 (ip), vehicle: saline with Tween-80
[2] = dose: 50.0 mg/kg/injection, schedule: Q04DX003 (ip), vehicle: saline with Tween-80
[3] = dose: 100.0 mg/kg/injection, schedule: Q04DX003 (ip), vehicle: saline with Tween-80
[4] = dose: 200.0 mg/kg/injection, schedule: Q04DX003 (ip), vehicle: saline with Tween-80
[5] = dose: 50.0 mg/kg/injection, schedule: Q01DX009 (ip), vehicle: saline with Tween-80
[6] = dose: 100.0 mg/kg/injection, schedule: Q01DX009 (ip), vehicle: saline with Tween-80
[7] = dose: 200.0 mg/kg/injection, schedule: Q01DX009 (ip), vehicle: saline with Tween-80
[8] = dose: 400.0 mg/kg/injection, schedule: Q04DX003 (ip), vehicle: saline with Tween-80
[9] = dose: 400.0 mg/kg/injection, schedule: Q01DX009 (ip), vehicle: saline with Tween-80

## c1ccc2c(c1)Sc1ccccc1N2Cc1cnc[nH]1
[1]
  T/C: 100 % of control
[2]
  T/C: 104 % of control
[3]
  T/C: 100 % of control
[4]
  T/C: 109 % of control

## CCCCCCCCCCCCCCCCCC(=O)[O][Sn]([CH2]CCC)([CH2]CCC)[O]C(=O)CCCCCCCCCCCCCCCCC
dose: 12.5 mg/kg/injection, schedule: Q04DX003 (ip), vehicle: other
  T/C: 121 % of control

## CN(C(N)=O)c1c(O)nc(N)[nH]c1=O
dose: 12.5 mg/kg/injection, schedule: Q01DX009 (ip), vehicle: water
  T/C: 106 % of control
dose: 25.0 mg/kg/injection, schedule: Q04DX003 (ip), vehicle: water
  T/C: 106 % of control
dose: 50.0 mg/kg/injection, schedule: Q01DX009 (ip), vehicle: water
  T/C: 88 % of control
dose: 50.0 mg/kg/injection, schedule: Q04DX003 (ip), vehicle: water
  T/C: 100 % of control
dose: 100.0 mg/kg/injection, schedule: Q01DX009 (ip), vehicle: water
  T/C: 91 % of control
dose: 100.0 mg/kg/injection, schedule: Q04DX003 (ip), vehicle: water
  T/C: 106 % of control
dose: 200.0 mg/kg/injection, schedule: Q04DX003 (ip), vehicle: water
  T/C: 106 % of control

## Nc1nc(N)c2cc(S(=O)c3ccc4ccccc4c3)ccc2n1 (stereo not drawn)
[5]
  T/C: 95 % of control
[6]
  T/C: 95 % of control
[7]
  T/C: 104 % of control

## O=C(O)c1cc(Br)ccc1OCc1ccc(Cl)cc1
[3]
  T/C: 106 % of control
[4]
  T/C: 99 % of control
[8]
  T/C: 110 % of control

## CSCc1cccc(CO)c1
[6]
  T/C: 110 % of control
[7]
  T/C: 100 % of control
[9]
  T/C: 105 % of control

## O=[N+]([O-])c1ccc(O)c(C2N(Cc3ccc(N(CCCl)CCCl)cc3)CCCN2Cc2ccc(N(CCCl)CCCl)cc2)c1
dose: 12.5 mg/kg/injection, schedule: Q01DX010 (ip), vehicle: carboxymethylcellulose (CMC)
  T/C: 120 % of control
dose: 25.0 mg/kg/injection, schedule: Q01DX010 (ip), vehicle: carboxymethylcellulose (CMC)
  T/C: 120 % of control
dose: 100.0 mg/kg/injection, schedule: Q01DX010 (ip), vehicle: carboxymethylcellulose (CMC)
  T/C: 165 % of control

## CC(O)C(=O)N1Cc2cc3ccccc3nc2C1 (stereo not drawn)
dose: 50.0 mg/kg/injection, schedule: Q01DX001 (ip), vehicle: saline sonified
  T/C: 95 % of control
dose: 100.0 mg/kg/injection, schedule: Q01DX001 (ip), vehicle: saline sonified
  T/C: 104 % of control
dose: 200.0 mg/kg/injection, schedule: Q01DX001 (ip), vehicle: saline sonified
  T/C: 95 % of control

## COC(=O)C(NC(=O)OCc1ccccc1)C(=O)OC
[6]
  T/C: 104 % of control
[3]
  T/C: 104 % of control
[7]
  T/C: 95 % of control
[4]
  T/C: 109 % of control
[9]
  T/C: 95 % of control
[8]
  T/C: 100 % of control

## CCOC(=O)C1CC1c1ccccc1 (stereo not drawn)
[5]
  T/C: 110 % of control
[6]
  T/C: 115 % of control and 121 % of control
[7]
  T/C: 119 % of control
[9]
  T/C: 112 % of control

## C=CCC1CCSC1=O (stereo not drawn)
[1]
  T/C: 100 % of control and 115 % of control
[2]
  T/C: 103 % of control and 106 % of control
[3]
  T/C: 101 % of control and 103 % of control and 119 % of control
[4]
  T/C: 108 % of control

## CCOc1c(Cl)cc(Cl)cc1C(c1ccc(Cl)cc1S(=O)(=O)O)c1cc(Cl)cc(Cl)c1OCC
dose: 25.0 mg/kg/injection, schedule: Q01DX009 (ip), vehicle: saline with Tween-80
  T/C: 108 % of control
[5]
  T/C: 116 % of control

## CC(=O)C1CC2C=CCC(C2)C1 (stereo not drawn)
dose: 50.0 mg/kg/injection, schedule: Q01DX001 (ip), vehicle: saline with Tween-80
  T/C: 95 % of control
dose: 100.0 mg/kg/injection, schedule: Q01DX001 (ip), vehicle: saline with Tween-80
  T/C: 120 % of control
dose: 200.0 mg/kg/injection, schedule: Q01DX001 (ip), vehicle: saline with Tween-80
  T/C: 95 % of control

## CC[NH-].CC[NH-].[Br][Pt+2][Br]
dose: 20.0 mg/kg/injection, schedule: Q04DX003 (ip), vehicle: other
  T/C: 100 % of control
dose: 30.0 mg/kg/injection, schedule: Q04DX003 (ip), vehicle: other
  T/C: 158 % of control
dose: 44.0 mg/kg/injection, schedule: Q04DX003 (ip), vehicle: other
  T/C: 154 % of control and 166 % of control
dose: 66.0 mg/kg/injection, schedule: Q04DX003 (ip), vehicle: other
  T/C: 159 % of control
dose: 100.0 mg/kg/injection, schedule: Q04DX003 (ip), vehicle: other
  T/C: 166 % of control and 168 % of control
dose: 150.0 mg/kg/injection, schedule: Q04DX003 (ip), vehicle: other
  T/C: 154 % of control
dose: 200.0 mg/kg/injection, schedule: Q04DX003 (ip), vehicle: other
  T/C: 162 % of control
